Results published in patent US10233498B2, “Therapeutic agent for emphysema and COPD” (TRUSTEES OF BOSTON UNIVERSITY, priority 2011, dated 2019).
“Also recorded” adds a separate entry of the source.

Assays:
[1] = system: human lung fibroblasts (HFL-1); test: Gene expression profiling (microarray, GSEA) of treated HFL-1 fibroblast cultures; format: cell-based
Protocol: GSEA was used to explore connections to other datasets. Genes in this dataset were ranked by the t-statistic of the Lm term in the linear model represented by equation (2) shown above. […] For those datasets where raw data was available, the Entrez gene chip definition file (CDF) was used to obtain RMA normalized expression values. Genes from these datasets were ranked by t-statistic. For dichotomous variables, the t-statistic was calculated from a comparison of expression levels observed in the two groups (e.g. cases and controls). For continuous variables, the t-statistic was from a linear model of expression as a function of the continuous variable (e.g. FEV1). Datasets that measured the effect of TGFβ ligands on gene expression in various cell types included Chambers et al., (The American journal of pathology 2003162:533-46) Verrecchia et al., (The Journal of biological chemistry 2001 276:17058-62), GSE749712, GSE545010, GSE665314, GSE1171013, and GSE172415. Lists of genes that change with TGFβ exposure were taken from the publication associated with the microarray data. If lists of at least 25 genes could not be obtained from the literature, the raw data was used from GEO and normalized as described above. The 200 genes with the highest fold change and the 200 genes with the lowest fold change were used as gene sets and compared to a list of all genes from this dataset ranked by their correlation to Lm.
(§1) Normal human diploid lung fibroblasts (HFL-1) were obtained from the American Type Culture Collection (Manassas, Va.) and used between 3-5 consequent passages after thawing of frozen cells. HFL-1 cells were placed in 6-well culture plates (BD Biosciences, Mississauga, ON) at a density of 1×10^5 cells per well in complete cell culture medium (CCM, DMEM supplemented with 10% FBS, 2 mM L-glutamine and 1% of antibiotic solution; Invitrogen, Burlington, ON). Cells were cultured at 37° C. and 5% CO2 in CCM before they reached 80% confluence. Cells were quiesced in CCM with 1% FBS overnight. […] Cells exposed to the CCM with added DMSO served as a vehicle control. Experiments were repeated 3 times using HFL-1 cells during 3 consequent cell culture passages. Total RNA was isolated from HFL-1 monolayers using RNeasy Plus Mini-Kit (Qiagen, Valencia, Calif.) as per manufacturer's instructions. Quantity and quality of the isolated RNA was determined using Agilent 2100 Bioanalyzer (Agilent Technologies, Mississauga, ON). Isolated RNA was processed and hybridized onto the Human Gene 1.0 ST array (Affymetrix Inc., Santa Clara, Calif.) according to the manufacturer's protocol. Transcript-level gene expression estimates were generated using RMA with the Entrez gene CDF version v11. […] Gene expression profiles were ranked for each treatment by t-statistic.

[2] = system: β1-integrin; test: Immunoblotting for β1-integrin in HFL-1 cells; format: cell-based, human; details: HFL-1, 48 hrs, FIG. 8A
Protocol: as §1
Production of β1-integrin by HFL-1 cells was assessed by immunoblotting as previously described (Pechkovsky, D. V. et al. The Journal of biological chemistry 2008 283:12898-908). Briefly, total cell protein was extracted from cultured HFL-1 using Cell Protein Extraction Buffer (Biosource, Camarillo, Calif.), quantified by DC Protein Assay (Bio-Rad, Hercules, Calif.), resolved by SDS-PAGE, and transferred to nitrocellulose membranes. Membranes were probed with mouse anti-human β1-integrin antibody (clone 419127, R&D Systems, Minneapolis, Minn.) and anti-β-tubulin antibody (Millipore, Billerica, Mass.) as a loading control. […] Density of the bands was quantified using Odyssey software 2.1 (LI-COR Biosciences). […]

Row | Substance | GSEA: genes most induced by treatment among genes that decrease in expression with increasing regional emphysema severity ([1]; TGFβ1 10 ng/ml, human lung fibroblasts, FDR<0.05, FIG. 7A) | β1-integrin (ITGB1) protein levels vs vehicle (DMSO) treated controls ([2]; TGFβ 10 ng/mL, p<0.05) | β1-integrin (ITGB1) protein levels vs vehicle (DMSO) treated controls ([2]; TGFβ 10 ng/mL, p<0.05, listed as TGFβ) | GSEA: genes that increase after treatment among genes whose expression decreases with increasing emphysema ([1]; GHK 0.1 nM or 10 nM (either concentration), HFL-1, FIG. 7A) | GSEA: 200 genes most induced by GHK at 1 μM in CMap cancer cell lines among genes that increase with treatment in HFL-1 ([1]; GHK 0.1 nM, 48 hrs, HFL-1, FIG. 7B) | ITGB1 expression profile ([1]; GHK 0.1 nM, HFL-1, p=0.004) | GSEA: genes whose expression is decreased with increasing emphysema severity among genes induced by treatment ([1]; GHK 10 nM, 48 hrs, HFL-1, FIG. 7C) | GSEA: genes whose expression is altered by GHK treatment among genes that change with TGFβ1 treatment ([1]; GHK at either concentration (0.1 nM, 10 nM), HFL-1, FIGS. 7B-7D) | β1-integrin (ITGB1) protein levels vs vehicle (DMSO) treated controls ([2]; GHK 0.1 or 10 nM, p<0.01)
1 | TGFβ1: recombinant human TGFβ1 (10 ng/ml, PeproTech) | enriched | significantly induced | increase |  |  |  |  |  | 
2 | Glycine-Histidine-Lysine [GHK] |  |  |  | enriched | enriched | significantly upregulated | enriched | enriched | significantly induced; also recorded: increase
